“And” between values parts separate entries of the source, which are not always exact repeats. Identical values can stand only once.
What was measured:
[1] = system: Huh-7 cells; experiment: alamarBlue cell viability (metabolic activity) assay; format: cell-based; details: lower doses, 24 h exposure
Protocol: The Huh-7 human liver cell line was used.
After 24 h exposure with compounds 7 or 17, the conditioned medium was removed from the cells and used for the LDH leakage assay (see below). Freshly prepared alamarBlue cell viability reagent (Invitrogen, diluted 1:10 in CCM) was added, followed by incubation for 3 h at 37° C. and 5% CO2. The resulting resorufin fluorescence was read using an Optima Fluostar plate reader (BMG Labtech) Ex: 544 nm/Em: 590 nm. Dimethyl sulfoxide 5% and CCM alone (i.e. compounds 7 and 17 0 μM) were used as positive and negative controls for cell death, respectively.

[2] = system: Huh-7 cells; experiment: Lactate dehydrogenase (LDH) leakage assay (cell membrane integrity); details: all exposure conditions, 24 h; in parity with untreated control cells
Protocol: The Huh-7 human liver cell line was used. […] For sub-cultivation the adherent cells were washed twice with DPBS, containing no calcium or magnesium, and detached with 0.25% trypsin ethylenediaminetetraacetic acid 1x (trypsin-EDTA, Gibco, with phenol red). For seeding, the cells were counted after trypsin neutralization, diluted to the desired number of cells (Table 2) and thereafter incubated at 37° C. with 5% CO2 for 24 h before experiments.
Prior to treatment, the conditioned medium was removed from the Huh-7 cells, and the compounds (stock solution in DPBS diluted in CCM) were added to the cells for different exposure times. Unexposed cells were treated the same way, with the same amount of added DPBS to CCM, instead of the compounds. Two different cytotoxicity assays (alamarBlue to measure metabolic activity and LDH leakage to measure cell membrane integrity) were performed in parallel using the cells and the culture medium from each sample, respectively. Treatments were done in triplicates and the experiment was repeated twice.
Lactate Dehydrogenase (LDH) Leakage Assay: To test for released LDH, the CyQUANT LDH Cytotoxicity Assay kit (Invitrogen) was used. […] Maximum LDH release were determined by treating cells with a 1:10 dilution of lysis buffer in serum free medium for 30 min at 37° C. and 5% CO2.

[3] = system: Huh-7 cells; experiment: Uptake kinetics monitored by flow cytometry; format: cell-based, human; details: 2.5 μM; for exposure time at which uptake reaches plateau / saturation: 5 min to 4 h exposure
Protocol: For flow cytometry experiments, cells were seeded in a 48-well plate as described above. For kinetics experiments of the uptake, solutions of 2.5 μM of compounds 7 or 17 in CCM were added. Control samples were CCM, containing an equal volume of DPBS instead of FBA-TP. All treatments were done in triplicate. The experiment was setup such that all samples could be harvested at the same time at the end of the experiment. The FBA-TP solutions where therefore added at different time points. At the end of the experiment, the cells were washed twice with DPBS, and thereafter harvested by addition of 0.25% trypsin-EDTA. The trypsin was neutralized by adding DPBS with 2% added FBS and samples were transferred to a 96 U-bottom well plate for high throughput readout.
Measurements were generally performed on a BD LSRFortessa flow cytometer with an BD High Throughput Sampler (HTS). The system was connected to the software BD FACSDiva. Samples were excited using a 405 nm laser and emission passed through a bandpass filter centred at 450 nm (±20 nm). Uptake kinetics experiments were repeated twice. For monophosphate compounds, a Luminex CellStream flow cytometer with a high throughput sampler (HTS) connected to the CellStream Acquisition software was used. Excitation wavelength was 405 nm, with the emission passing through a 456/51 nm bandpass filter.

[4] = Photophysical characterisation (absorption and emission spectra in DPBS); format: physicochemical; details: room temperature; for ε405, FBA χ ΦF: at 405 nm; for λem, max / ΦF: excitation 355 nm; for ΦF: relative to quinine sulphate
Protocol: Absorption spectra were recorded on a Cary 4000 spectrometer (Agilent Technologies). The emission spectra were measured on a SPEX Fluorolog 3 spectrofluorimeter (Jobin Yvon Horiba). Three consecutive emission spectra recorded at a scan rate of 600 nm min−1 were collected and averaged. The spectra of compounds 7 and 17 in DPBS were recorded from 360 nm to 695 nm with excitation at 355 nm. To avoid bleaching, the monochromator slits on the excitation side were set to 0.8 nm, and on the emission side to 2.5 nm.
The spectra of molar absorptivities (ε in M^−1cm^−1) were calculated using Equation 1, with A being the measured absorption, A260 and ε260 the absorption or molar absorptivity, respectively, at 260 nm.
The fluorescence quantum yields were determined relative to the quantum yield of quinine sulphate in 0.5 M H2SO4 (ϕF=0.546^42, referred to as reference), and calculated using Equation 2, in which subscripts s and r refer to sample and reference, respectively. I is the integrated fluorescence intensity, A the measured absorption of the fluorophore at the excitation wavelength and n is the refractive index of the solvent (H2O or H2SO4, respectively; Eaton D. F.; Pure Appl. Chem. 60, 1107-1114 [1988 ]).
The spectroscopic properties of compounds 7 and 17 were determined under physiological conditions in order to determine the experimental setup for cell studies, with absorption and emission spectra being recorded in DPBS to mimic the ionic strength and salt composition in mammalian cells. To record emission spectra, the excitation wavelength was set to 355 nm, and measurements were performed at room temperature (ca. 22° C.). Molar absorptivities (s) were then calculated using the Beer-Lambert law.

[5] = system: Huh-7 cells; experiment: Uptake competition with ATP or adenosine; format: cell-based, human; details: 2.5 μM compound, 4 h, increasing ATP or adenosine
Protocol: Uptake of 2CNqATP and pATP was compared with natural adenosine triphosphate (ATP) or adenosine (both purchased from Sigma-Aldrich). The readout is based on the fluorescence of the compounds, detected in living cells by flow cytometry or in cell lysate using a microplate reader following co-administration with increasing concentrations of natural ATP or adenosine.
Cells were seeded in a 96-well plate. Treatment solutions with ATP or adenosine were prepared by stepwise dilution in CCM to reach the concentrations shown in FIG. 7. 2CNqATP or pATP were added at a concentration of 2.5 μM. The cells were incubated for 4 h at 37° C. and 5% CO2. Cell morphology was checked under a light microscope.
For flow cytometry, the treated cells were washed three times with DPBS and detached with 0.25% trypsin-EDTA, which was then neutralized with CCM. Samples were transferred to a 96 U-well plate for high throughput readout on a BD LSRFortessa flow cytometer. Samples were excited using a 405 nm laser and emission passed through a bandpass filter centred at 450 nm (±20 nm).
For lysate readout, cells were lysed in 5x passive lysis buffer (Promega) for 1 h rocking at room temperature (ca. 22° C.). Fluorescence was recorded on an Optima Blue Fluostar plate reader (BMG Labtech). 2CNqATP was excited at 355 nm (±20 nm) and emission was detected using bandpass filter centered at 460 nm (±12 nm). […]

Substance	comparison of cell viability at lower doses [1]	level of released LDH [2]	exposure time at which fluorescence is significantly over the initial (t=0) level [3] [min]	exposure time at which uptake reaches plateau / saturation [3] [h]	εmax, FBA χ ΦF [4] [M⁻¹ cm⁻¹]	λabs, max [4] [nm]	ε405, FBA χ ΦF [4] [M⁻¹ cm⁻¹]	λem, max [4] [nm]	ΦF [4] [%]	uptake competition with ATP and adenosine [5]	lag phase of uptake [3] [min]	increase in cellular fluorescence over time (comparison) ([3]; 5 min to 4 h)	absorption band peaks [4]
((2R,3S,4R,5R)-5-(8-cyano-2,3,5,6-tetraazaaceanthrylen-2(6H)-yl)-3,4-dihydroxytetrahydrofuran-2-yl)methyl hydrogen triphosphate [2CNqATP]	slightly more toxic than pATP	about 10%	5	2	4900	352	504	463	47	competes with both ATP and adenosine with a stronger competition effect for ATP at low concentrations	–	–	–
((2R,3S,4R,5R)-5-(2,3,5,6-tetraazacyclopenta[de]tetracen-2(6H)-yl)-3,4-dihydroxytetrahydrofuran-2-yl)methyl hydrogen triphosphate [pATP]	–	–	–	> 4	6000	386	909	420	49	also competes with ATP and adenosine, but the effect is considerably weaker	15	significantly slower	370 nm and 386 nm

Source: patent publication US20240209016A1, “FLUORESCENT NUCLEOSIDE PHOSPHATES” (STEALTH LABELS BIOTECH AB, priority 2021, published 2024)
